Reference: PMC9779571, “Guanidine Derivatives Containing the Chalcone Skeleton Are Potent Antiproliferative Compounds against Human Leukemia Cells” (International Journal of Molecular Sciences, 2022)

How the values were obtained:
[1] = test system: HL-60 cells; experiment: MTT cytotoxicity assay, HL-60; format: cell-based; conditions: Homo sapiens, HL-60, 72 h, means ± SEM
From the text: (§1) U-937, HL-60, MOLT-3, NALM-6, and SK-MEL-1 cells were from DSMZ (German Collection of Microorganisms and Cell Cultures, Braunschweig, Germany). U-937/Bcl-2 cells were kindly provided by Dr. Jacqueline Bréard (INSERM U749, Faculté de Pharmacie Paris-Sud, Châtenay-Malabry, France). The U-937 is a pro-monocytic, human promyelocytic leukemia cell line that was isolated from a histiocytic lymphoma. HL-60 is a human acute myeloid leukemia cell line. MOLT-3 is a human acute lymphoblastic leukemia cell line. NALM-6 is a human B cell precursor leukemia. SK-MEL-1 is a human melanoma cell line growing singly or in clumps (occasional giant, polynucleated cell) in suspension. Cells were cultured in RPMI 1640 medium containing 10% (v/v) heat-inactivated fetal bovine serum, 100 μg/mL streptomycin, and 100 U/mL penicillin, incubated at 37 °C in a humidified atmosphere containing 5% CO2 as described. The doubling times of the cell lines were 24 h in HL-60, 30 h in U-937, U-937/Bcl-2, 40 h in MOLT-3 and NALM-6, and several days in SK-MEL-1 cells. Human peripheral blood mononuclear cells (PBMC) were isolated from heparin-anticoagulated blood of healthy volunteers by centrifugation with Ficoll-Paque Plus (GE Healthcare Bio-Sciences AB, Uppsala, Sweden). PBMC were also stimulated with phytohemagglutinin (2 µg/mL) for 48 h before the experimental treatment. The trypan blue exclusion method was used for counting the cells by a hemocytometer with 95% viability in all the experiments. Compounds were dissolved in dimethyl sulfoxide (DMSO) and kept under dark conditions at 25 °C. […] The cytotoxicity of the synthetic compounds was evaluated by colorimetric 3-(4,5-dimethyl-2-thiazolyl-)-2,5-diphenyl-2H-tetrazolium bromide (MTT) assay as previously described. Briefly, cells (5000 per well) were incubated with increasing concentrations of compounds for 72 h into a 96-well plate. Then, the supernatants were removed and 0.5 mg/mL MTT was added and incubated for 4 h at 37 °C. Sodium dodecyl sulfate (10% w/v) in 0.05 M HCl was added to solubilize the reaction products and the absorbance was measured at 570 nm with a reference wavelength of […] using an ELISA reader (Bio-Rad, Hercules, CA, USA). The IC50 values (concentrations inducing a 50% inhibition of cell viability) were determined graphically for each experiment by a nonlinear regression using the curve fitting routine implemented within the software Prism 5.0 (GraphPad, La Jolla, CA, USA).

[2] = test system: U-937 cells; experiment: Western blot of PARP, caspases and cytosolic cytochrome c; format: cell-based, human; conditions: 24 h; for full-length PARP protein (immunoblot): U-937, 10 µM; for mitochondrial cytochrome c release (cytosolic fraction, immunoblot): U-937, increasing concentrations
Method: For whole cell lysates, cells were harvested by centrifugation (500× g, 10 min, 4 °C), washed twice with PBS, and pellets were resuspended in lysis buffer (1% Triton X-100, 10 mM sodium fluoride, 2 mM EDTA, 20 mM Tris-HCl (pH 7.4), 2 mM tetrasodium pyrophosphate, 10% glycerol, 137 mM NaCl, and 20 mM sodium β-glycerophosphate), with the protease inhibitors phenylmethylsulfonyl fluoride (PMSF, 1 mM), aprotinin, leupeptin, and pepstatin A (5 μg/mL each) and kept on ice for 15 min. Cells were sonicated on ice 5 times (5 s each, with intervals between each sonication of 5 s) with a Braun Labsonic 2000 microtip sonifier and centrifuged (11,000× g, 10 min, 4 °C). For subcellular fractionation, cells were washed twice with PBS and then resuspended in ice-cold buffer (20 mM HEPES (pH 7.5), 250 mM sucrose, 10 mM KCl, 1.5 mM MgCl2, 1 mM EDTA, 1 mM EGTA, and 1 mM dithiothreitol containing protease inhibitors (0.1 mM PMSF and 1 µg/mL leupeptin, aprotinin, and pepstatin A)). After 15 min on ice, cells were lysed by pushing them several times through a 29-gauge needle, and the lysate was centrifuged at 1000× g for 5 min at 4 °C. The resulting supernatant fraction was centrifuged at 15,000× g for 20 min at 4 °C, and the resulting supernatant was used as the cytosolic fraction. The Bradford method was used to determine protein concentration. The samples loaded in sodium dodecyl sulfate-polyacrylamide gel (from 7.5 to 15% depending on the molecular weight of interest) were prepared with the same protein amount and boiled for 5 min. The proteins were transferred to poly(vinylidene difluoride) membranes for 20 h at 20 V. The membranes were blocked with 10% nonfat milk in Tris-buffered saline (50 mM Tris-HCl (pH 7.4), 150 mM NaCl) containing 0.1% Tween-20 (TBST) for 1 h, followed by incubation with specific antibodies against caspase-3, PARP, caspase-9, β-actin, tubulin, and cytochrome c overnight at 4 °C. Membranes were washed three times with TBST and incubated for 1 h with the specific secondary antibody and the antigen-antibodies complexes were visualized by enhanced chemiluminescence using the manufacturer’s protocol.

[3] = test system: U-937 cells; experiment: MTT cytotoxicity assay, U-937; format: cell-based; conditions: Homo sapiens, U-937, 72 h, means ± SEM
From the text: as §1

[4] = test system: caspases-3/7, -8, and -9 in U-937 cells; experiment: Caspase activity in lysates of treated cells (colorimetric tetrapeptide substrates); format: cell-based, human; conditions: U-937, 10 µM, 24 h
Method: Caspase activity was determined by measuring proteolytic cleavage of specific chromogenic substrates as previously described. Briefly, cells were treated with the specified guanidines for 24 h, harvested by centrifugation (1000× g for 5 min at 4 °C), washed twice with PBS, resuspended in lysis buffer (50 mM HEPES, pH 7.4, 0.1 mM EDTA, 1 mM dithiothreitol, and 0.1% Chaps), spun (17,000× g for 10 min at 4 °C) and the supernatants were normalized by protein concentration and used to determine enzyme activity. The net increase in absorbance at 405 nm after incubation at 37 °C was indicative of caspase activity. The colorimetric substrates were DEVD-pNA (for caspase-3 like protease activity), IETD-pNA (for caspase-8 activity), and LEHD-pNA (for caspase-9 activity).

[5] = test system: six human cancer cell lines; experiment: MTT cytotoxicity assay, all cell lines assayed (summary statements); format: cell-based; conditions: Homo sapiens; range over the six cell lines, 72 h
From the text: U-937, HL-60, MOLT-3, NALM-6, and SK-MEL-1 cells were from DSMZ (German Collection of Microorganisms and Cell Cultures, Braunschweig, Germany). U-937/Bcl-2 cells were kindly provided by Dr. Jacqueline Bréard (INSERM U749, Faculté de Pharmacie Paris-Sud, Châtenay-Malabry, France). The U-937 is a pro-monocytic, human promyelocytic leukemia cell line that was isolated from a histiocytic lymphoma. HL-60 is a human acute myeloid leukemia cell line. MOLT-3 is a human acute lymphoblastic leukemia cell line. NALM-6 is a human B cell precursor leukemia. SK-MEL-1 is a human melanoma cell line growing singly or in clumps (occasional giant, polynucleated cell) in suspension. Cells were cultured in RPMI 1640 medium containing 10% (v/v) heat-inactivated fetal bovine serum, 100 μg/mL streptomycin, and 100 U/mL penicillin, incubated at 37 °C in a humidified atmosphere containing 5% CO2 as described. […] The cytotoxicity of the synthetic compounds was evaluated by colorimetric 3-(4,5-dimethyl-2-thiazolyl-)-2,5-diphenyl-2H-tetrazolium bromide (MTT) assay as previously described. […] Sodium dodecyl sulfate (10% w/v) in 0.05 M HCl was added to solubilize the reaction products and the absorbance was measured at 570 nm with a reference wavelength of […] using an ELISA reader (Bio-Rad, Hercules, CA, USA). […]

SMILES | IC50 [1] | full-length PARP protein (immunoblot) [2] | mitochondrial cytochrome c release (cytosolic fraction, immunoblot) [2] | IC50 [3] | caspase-8 activation [4] | increase of caspase-3/7 and caspase-9 activities compared with control [4] | IC50 [5]
Cc1ccc(S(=O)(=O)NC(=Nc2ccc(/C=C/C(=O)c3c(O)cccc3OCc3ccccc3)cc2)N2CCN(C)CC2)cc1 [Compound 6f] | 1600 ± 1000 nM | dramatically decreased | concentration-dependent release | 1600 ± 600 nM | less activated | approximately three-fold | 1500 to 4500 nM
O=C(/C=C/c1ccc(N=C(Nc2ccccc2)N2CCCCC2)cc1)c1c(O)cccc1OCc1ccccc1 [Compound 6i] |  | dramatically decreased | concentration-dependent release |  | less activated | two-fold | 
